Among the data in PubChem BioAssay (NCI) are TGI and GI50 values, retold here.

What all share (test): NCI-60 cell line screen, 48 h
Experiment [1] deals with COLO 205 colon.
The test system of experiment [2] is KM20L2 colon.
Experiment [3] has as its system M19-MEL melanoma.
Experiment [4] concerns NCI-H460 lung.
The subject of experiment [5] is OVCAR-4 ovarian.
In experiment [6] the test system is SN12C renal.
Experiment [7] has as its system TK-10 renal.
Experiment [8] deals with UO-31 renal.
For experiment [9], the system named is BT-549 breast.
In experiment [10] the test system is MDA-MB-435.

Structures are written as SMILES.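 These data come from cells grown in 96-well plates and exposed to compound for 48 hours at five concentrations. Here, GI50 denotes the concentration required for 50% inhibition of growth. TGI denotes the concentration required for complete inhibition of growth.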

As for `CCn1c(O)c(C(=O)Nc2cccs2)c(=O)n(CC)c1=S`, the TGI in experiment [1] came out at 32.2 µM; in experiment [2], 32.9 µM; in [3] it was 39 µM; in experiment [4], 34.5 µM; in [5], 70.9 µM; in experiment [6] it was 70.8 µM. Also, the TGI in experiment [7] stood at 69.3 µM.
With `Cc1c(Cl)ccc2[s+]snc12`, the TGI is over 100 µM in experiment [1]; over 100 µM in experiment [2]; over 100 µM in experiment [3]; over 100 µM in [4]; over 100 µM in experiment [5]; 57.3 µM in [6]. For the same compound, the TGI in [7] and in experiment [8] was over 100 µM in each case.
Regarding `Cc1cc2c(=O)cc(-c3ccncc3)oc2c(C(N)=O)c1C`, the TGI in [1], in experiment [2], in [3], in [4], in [6] and in experiment [7] was over 100 µM in each case. The TGI in experiment [8] is over 100 µM.
On to `O=C(NC(=Nc1ccccc1)SCCSC(=Nc1ccccc1)NC(=O)c1ccccc1)c1ccccc1`, for which the TGI in experiment [1], in experiment [2], in experiment [3], in [4], in experiment [5] and in experiment [6] was over 100 µM throughout. In addition, the TGI in experiment [7] was over 100 µM; in experiment [8], 88.2 µM.
With `CC(=O)Nc1ccc(/C=C/C(=O)c2sc(-n3nc(-c4ccccc4)cc3-c3ccccc3)nc2C)cc1`, the GI50 in experiment [1], in experiment [2], in experiment [3], in experiment [4], in [6] and in experiment [7] was over 100 µM throughout. The GI50 in [8] is over 100 µM. Also, the TGI in experiment [1], in experiment [2], in experiment [3], in experiment [4], in [5] and in [6] was over 100 µM in each case. Moreover, the TGI in experiment [7] and in [8] was over 100 µM throughout.
For the compound `O=C(c1ccccc1)N1CCc2c([nH]c3ccccc23)C1`, the TGI in experiment [1] was 36.7 µM; in [2], over 100 µM; in experiment [3], over 100 µM; in experiment [4], over 100 µM; in experiment [5] it was over 100 µM; in [6] it was over 100 µM. Moreover, the figures for the TGI in experiment [7] and in experiment [8] were over 100 µM and 99.2 µM, respectively.
For the compound `COc1cc(/C=C(\C#N)C(=O)c2ccccc2)cc(OC)c1OC`, the TGI in experiment [1], in experiment [2], in experiment [3], in experiment [4], in experiment [5] and in [6] was over 100 µM in each case. The TGI in [7] and in experiment [8] was over 100 µM throughout.
In the case of `COC(=O)N1C=Cc2c(c(C)c3c([nH]c4ccccc43)c2C)C1C` (stereo not drawn), the TGI was determined as 34.4 µM in [1]; 29.3 µM in [2]; 37.6 µM in experiment [3]; 70.3 µM in experiment [4]; 26.1 µM in experiment [5]; 35.9 µM in experiment [7]. Besides, the TGI in [8] came out at 34.2 µM.
For `CCCCCCCCCCCCCCCCCCCCCCC(=O)N[C@H]1CCc2cc(OC)c(OC)c(OC)c2-c2ccc(SC)c(=O)cc21`, the TGI was 31.9 µM in [1]; 37.1 µM in experiment [2]; over 100 µM in [3]; 83 µM in [4]; over 100 µM in experiment [5]; over 100 µM in [6]. The TGI in experiment [7] and in [8] was over 100 µM throughout.
For the compound `O=C(Nc1cc(Cl)ccc1Cl)c1cc2ccccc2oc1=O`, the TGI in [1], in experiment [2], in experiment [3], in [4], in [6] and in [7] was over 100 µM each time.
Regarding `O=c1ccn([C@@H]2C[C@H](CO)CS(=O)C2)c(=O)[nH]1` (stereo partly drawn), the TGI in experiment [1], in [2], in [3], in experiment [4], in experiment [5] and in [6] was over 100 µM in each case. Moreover, the TGI in experiment [7] and in experiment [8] was over 100 µM in each case.
Take `CCC[CH2][Sn]1([CH2]CCC)[O]C(=O)c2cccnc2[S]1`: the GI50 in [1] is 3.34 µM; in experiment [2] it was 7.72 µM; in experiment [3] it was 3.87 µM; in experiment [4], 11.4 µM; in [5], 10.1 µM; in experiment [6], 3.8 µM. For the same compound, the figures for the GI50 in [7] and in experiment [8] were 3.71 µM and 8.59 µM, respectively. Moreover, the TGI in [1] was found to be 9.33 µM; in [2] it was 21 µM; in experiment [3] it was 15.4 µM; in [4], 23.6 µM; in experiment [5], 21.9 µM; in [6] it was 13.2 µM. In addition, the results for the TGI in [7] and in [8] were 12.1 µM and 20.9 µM, respectively.
For the compound `O=C(CC1(O)C(=O)Nc2ccc(Br)cc21)c1cccc([N+](=O)[O-])c1` (stereo not drawn), the TGI in experiment [1] is over 100 µM; in experiment [2], over 100 µM; in experiment [4], over 100 µM; in experiment [5] it was 67.1 µM; in experiment [6] it was over 100 µM; in experiment [7], over 100 µM. Moreover, in experiment [8], the TGI is over 100 µM.
For `BrC(/C=N/Nc1nnc(-c2ccccc2)c(-c2ccccc2)n1)C(Br)c1ccccc1` (stereo not drawn), the TGI in experiment [1], in [2], in [3], in [4], in experiment [6] and in experiment [7] was over 100 µM throughout. The TGI in [8] came out at 60.5 µM.
Regarding `CCCCP1(=O)C=CC(Cl)=C(C)C1` (stereo not drawn), the TGI in experiment [1], in experiment [2], in experiment [3], in [4], in experiment [5] and in experiment [6] was over 100 µM in each case. Moreover, the TGI in experiment [7] and in experiment [8] was over 100 µM each time.
On to `Cc1nc2ccccc2c(=O)n1/N=C(\N=Nc1ccc(Cl)cc1)c1ccc(N(C)C)cc1`, for which the TGI in experiment [1], in experiment [2], in experiment [3], in [4], in experiment [6] and in experiment [7] was over 100 µM each time. In experiment [8], the TGI is over 100 µM.
For `O=C1C(=C2C(=O)c3ccccc3[N+]2=O)N([O-])c2ccccc21`, the TGI in experiment [1] was 33 µM; in experiment [3], 68.4 µM; in experiment [4], 55.3 µM; in [5], 31.7 µM; in experiment [7], 81.1 µM; in [8], over 100 µM.
Take `COc1ccc(Cc2c3cc(OC)c(OC)cc3cc[n+]2C)cc1`: the TGI is over 16.7 µM in experiment [1]; 24.3 µM in [2]; over 55.3 µM in [3]; over 40.5 µM in experiment [5]; over 28.3 µM in experiment [6]; over 65.1 µM in [7]. Also, in [8], the TGI is over 51.4 µM.
With `N#CC1(C2CC(=O)N(c3ccccc3)C2=O)CCCCC1=O` (stereo not drawn), the TGI in experiment [1], in experiment [3], in experiment [4], in [5], in experiment [6] and in experiment [7] was over 100 µM throughout. Moreover, in experiment [8], the TGI is over 100 µM.
For the compound `C#CC[C@]12CC(=O)CC[C@H]1CC1(C2)OCCO1`, the TGI in experiment [1], in experiment [2], in experiment [3], in experiment [4], in experiment [5] and in [6] was over 100 µM each time. For the same compound, the TGI in experiment [7] and in experiment [8] was over 100 µM throughout.
For the compound `Nc1ncnc2c1ncn2C1SC(CO)C(O)C1O` (stereo not drawn), the GI50 is 12.7 µM in [9]; 33.3 µM in experiment [1]; 18.1 µM in [10]; 7.88 µM in [4]; 34.6 µM in [5]; 19.3 µM in experiment [6]. Moreover, the GI50 is 60.9 µM in experiment [7] and 18.8 µM in experiment [8]. For the same compound, the TGI in experiment [9] is 43.2 µM; in experiment [1], over 100 µM; in [10] it was 50.2 µM; in experiment [4], 37.9 µM; in experiment [5], over 100 µM; in experiment [6] it was 62.3 µM. The TGI in experiment [7] is over 100 µM; in experiment [8], 41.9 µM.
Turning to `CC(=O)NNc1nc(C)c(C(=O)NNC(=O)C(=O)Nc2ccc(C)cc2[N+](=O)[O-])s1`, the TGI in experiment [1], in [2], in [3], in [4], in experiment [5] and in experiment [6] was over 100 µM each time. In addition, the TGI in experiment [7] and in [8] was over 100 µM throughout.
`Cc1cc(Br)ccc1N=NC1C(=O)ON=C1c1ccccc1` (stereo not drawn): the TGI in experiment [1] was 29.6 µM; in experiment [2], over 100 µM; in experiment [3] it was over 100 µM; in [4], over 100 µM; in experiment [5] it was over 100 µM; in experiment [6], over 100 µM. Moreover, the TGI in [7] and in experiment [8] was over 100 µM throughout.
In the case of `CC1CC(=O)C(CC(=O)O)[C@H]1C(C(=O)C(=O)Nc1cc(Cl)ccc1Cl)[N+](=O)[O-]` (stereo partly drawn), the TGI in experiment [1], in experiment [2], in experiment [3], in experiment [4], in [6] and in experiment [7] was over 100 µM throughout. Also, the TGI in experiment [8] was over 100 µM.
Regarding `c1c[nH]c(CN2CCN(Cc3ncc[nH]3)CC2)n1`, the TGI in experiment [9], in experiment [1], in [10], in experiment [4], in [5] and in experiment [6] was over 100 µM in each case. Besides, the TGI in experiment [7] and in experiment [8] was over 100 µM each time.
As for `CC1(C)CCC(c2ccc(Cl)cc2)=C(CN2CCN(c3ccc(C(=O)NS(=O)(=O)c4ccc(N[C@H](CCN5CCOCC5)CSc5ccccc5)c(S(=O)(=O)C(F)(F)F)c4)cc3)CC2)C1`, the GI50 is 1.96 µM in experiment [9]; 1.24 µM in experiment [1]; 1.64 µM in experiment [10]; 1.87 µM in [4]; 1.22 µM in experiment [5]; 1.53 µM in [6]. For the same compound, the GI50 in experiment [7] is 1.28 µM; in experiment [8] it was 1.74 µM. Also, the TGI in experiment [9] came out at 3.6 µM; in experiment [1] it was 2.68 µM; in [10], 3.17 µM; in experiment [4], 3.71 µM; in experiment [5] it was 2.52 µM; in experiment [6], 3.33 µM. The TGI in [7] is 2.67 µM; in experiment [8], 3.21 µM.
Consider `CCn1nc(C#Cc2c(C)ccc3c(Nc4ccc(Cl)cc4)nccc23)c2c(N)ncnc21`, for which the GI50 is 5.27 µM in experiment [9]; 2.36 µM in experiment [1]; 1.08 µM in experiment [10]; 4.22 µM in experiment [4]; 6.16 µM in [5]; 3.84 µM in experiment [6]. Further, the GI50 was 6.39 µM in experiment [7] and 2.09 µM in experiment [8]. The TGI was over 100 µM in experiment [9]; over 100 µM in experiment [1]; 4.57 µM in experiment [10]; over 100 µM in experiment [4]; 53.5 µM in [5]; over 100 µM in experiment [6]. The TGI in experiment [7] and in experiment [8] was over 100 µM throughout.
Turning to `C=C(C)[C@@H]1CC[C@]2(C(=O)OC)CC[C@]3(C)[C@H](CC[C@@H]4[C@@]5(C)CC/C(=N\OCCC(=NCCC#N)NOCCC#N)C(C)(C)[C@@H]5CC[C@]43C)[C@@H]12`, the GI50 was 11.3 µM in experiment [9]; 9.02 µM in experiment [1]; 9.7 µM in experiment [10]; 11.1 µM in experiment [4]; 12.3 µM in experiment [5]; 7.28 µM in [6]. Further, the GI50 in [7] was 13.8 µM; in [8] it was 15.6 µM. For the same compound, the TGI in experiment [9] is over 50 µM; in experiment [1] it was over 50 µM; in experiment [10], over 50 µM; in experiment [4], over 50 µM; in [5] it was over 50 µM; in experiment [6], 14.7 µM. Further, the TGI in [7] and in experiment [8] was over 50 µM each time.
